{"source": "patent US20050074867A1", "about": "“Preservation of competent cells at ambient temperatures” (priority 2001, published 2005)", "key": {"[1]": {"tested_on": "commercial electrocompetent E. coli cells", "test": "Electroporation of preserved commercial electrocompetent E. coli cells", "assay_type": "cell-based", "conditions": "loaded with 10% MAG, transformed immediately after drying", "method": "(2) Electroporation of fresh E. coli electrocompetent cells: Two aliquots of the concentrated cells (50 μl each) were transferred into pre-chilled Eppendorf tubes (1.5 ml) and 2 μl of pUC18 plasmid DNA (approx. 300 ng/μl) were added to the tubes. The [cells+DNA] mixtures were incubated on ice for 5 minutes and transferred into pre-chilled cuvettes for electroporation. The cells were electroporated by using a BTX T-100 electroporator, at 625 or at 800 volts (V) in BTX cuvettes (0.1 cm gap, P/N 610 Disposable Cuvettes) with a time constant “r” equal 5 msec. Under the pulse conditions described above, the cells were subjected to an electrical field “E” equal to 6.25 kV/cm or 8.0 kV/cm.\nImmediately after the pulse, the cells were transferred into small glass tubes (10×100 mm) with 0.5 ml of “outgrowth medium” (L-broth+20% sucrose+10 mM CaCl2). The electroporated bacteria were incubated at 37° C. with moderate shaking (150 rpm) for 60 minutes. When the 60 minutes period elapsed, the cells were diluted in “outgrowth medium” and duplicate samples were spread plated on L-agar plates with no antibiotic (to determine electroporation survival) and on L-agar plates with 50 μg/ml or 100 μg/ml of ampicillin (selective marker on pUC18 plasmid; to determine electroporation efficiency). The plates were incubated overnight at 37° C. and the colonies were counted the next day.\n(6) Electroporation of dried (preserved) E. coli cells: One or two 50 μl aliquots were removed from each rehydrated vial and transferred to pre-chilled Eppendorf tubes. The cells were mixed with pUC18 plasmid DNA (300 ng/μl) and electroporated using the conditions described previously for the electroporation of fresh electrocompetent cells.\nElectroporation survival was calculated as the number of viable cells recovered after electrical pulse per total number of electroportated cells. Electroporation efficiency was calculated as the number of transformants (cells which received pUC18 plasmid DNA) per number of cells recovered after electroporation (electroporation survival). When applicable, the electroporation efficiency was also expressed as number of transformants per 1 μg of pUC18 DNA (Cfu/μg).\nPreserved commercial cells (vitrified and frozen) were electroporated as described previously. Electroporation survival and electroporation efficiency in the preserved cells were determined and compared to the same parameters in the fresh cells (Table 5)."}, "[2]": {"tested_on": "logarithmic E. coli cells", "test": "Preservation survival and stability of logarithmic E. coli cells loaded in vitro before foam drying", "assay_type": "cell-based", "conditions": "mid-logarithmic cells loaded with 0.1% at 37° C. for 30 minutes"}}, "data": [{"molecule": "COC1OC(CO)C(O)C(O)C1O", "note": "(stereo not drawn) [MAG, a-methyl-glucoside]", "values": [{"measurement": "Electroporation Efficiency 10^−3%", "setting": "[1]", "result": "6.1 +/− 5.5 10^−3%"}, {"measurement": "Electroporation Efficiency (Cfu/µg DNA)", "setting": "[1]", "result": "1.6 × 10^4 +/− 1.8 × 10^2 Cfu/µg DNA"}, {"measurement": "Electroporation Efficiency Cfu/ml", "setting": "[1]", "result": "1.9 × 10^5 +/− 1.7 × 10^5 Cfu/ml"}, {"measurement": "Electroporation Survival (%)", "setting": "[1]", "result": "35.7 +/− 4.7%"}, {"measurement": "Electroporation Survival Cfu/ml", "setting": "[1]; cell density 1/10 of fresh concentrates", "result": "3.2 × 10^9 +/− 4.2 × 10^8 Cfu/ml"}, {"measurement": "survived drying", "setting": "[2]", "result": 9, "unit": "%"}]}]}
